Measurements as given in ChEMBL document CHEMBL4028827, “Discovery of indazole aldosterone synthase (CYP11B2) inhibitors as potential treatments for hypertension” (Bioorg Med Chem Lett, 2017).

Columns and labels:
[1] = target: T1, Cytochrome P450 11B2, mitochondrial (Rattus norvegicus, UniProt P30099); assay: Inhibition of rat CYP11B2-1F4 expressed in Chinese hamster V79 cells using 11-deoxycorticosterone as substrate preincubated for 1 hr followed by substrate addition measured for 3 hrs by HTRF assay; type: cell-based
T1 sequence (P30099 whole entry): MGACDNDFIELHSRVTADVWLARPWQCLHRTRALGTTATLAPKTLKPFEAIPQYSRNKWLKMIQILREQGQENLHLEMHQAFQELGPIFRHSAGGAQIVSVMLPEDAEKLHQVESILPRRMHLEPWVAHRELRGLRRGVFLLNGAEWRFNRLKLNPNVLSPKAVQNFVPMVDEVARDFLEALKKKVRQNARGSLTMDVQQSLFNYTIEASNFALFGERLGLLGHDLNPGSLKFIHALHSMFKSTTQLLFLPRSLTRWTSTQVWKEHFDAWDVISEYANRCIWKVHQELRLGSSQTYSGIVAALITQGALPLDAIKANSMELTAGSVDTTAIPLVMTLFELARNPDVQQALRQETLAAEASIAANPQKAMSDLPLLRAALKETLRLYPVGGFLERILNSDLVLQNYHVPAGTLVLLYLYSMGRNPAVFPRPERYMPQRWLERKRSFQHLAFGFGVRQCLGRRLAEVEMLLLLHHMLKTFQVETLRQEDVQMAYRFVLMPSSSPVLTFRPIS

[2] = Half life in Sprague-Dawley rat at 1 mg/kg, iv or 2 mg/kg, po administered via gavage by LC-MS/MS analysis; type: ADME, organism-based; conditions: in vivo
Cytochrome P450 3A4 = Cytochrome P450 3A4 (Homo sapiens, UniProt P08684); assay: Inhibition of hepatic CYP3A4 (unknown origin); type: ADME
[3] = target: T2, Cytochrome P450 11B2, mitochondrial (Homo sapiens, UniProt P19099); assay: Inhibition of human CYP11B2-CLE9 expressed in Chinese hamster V79 cells using 11-deoxycorticosterone as substrate preincubated for 1 hr followed by substrate addition measured for 3 hrs by HTRF assay; type: cell-based
T2 sequence (P19099 whole entry): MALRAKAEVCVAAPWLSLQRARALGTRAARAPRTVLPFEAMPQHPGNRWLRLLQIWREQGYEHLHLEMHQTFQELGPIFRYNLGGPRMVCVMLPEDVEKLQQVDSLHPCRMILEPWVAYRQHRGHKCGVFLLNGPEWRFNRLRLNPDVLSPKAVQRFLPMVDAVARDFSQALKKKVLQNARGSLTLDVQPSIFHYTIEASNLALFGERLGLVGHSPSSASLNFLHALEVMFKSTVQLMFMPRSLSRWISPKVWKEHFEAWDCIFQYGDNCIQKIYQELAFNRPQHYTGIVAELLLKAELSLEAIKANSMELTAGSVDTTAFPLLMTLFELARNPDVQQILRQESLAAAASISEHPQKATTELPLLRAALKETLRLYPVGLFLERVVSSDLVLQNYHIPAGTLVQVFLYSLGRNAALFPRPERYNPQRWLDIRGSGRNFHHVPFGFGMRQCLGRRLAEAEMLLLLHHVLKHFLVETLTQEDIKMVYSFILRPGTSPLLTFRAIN

[4] = Volume of distribution in Sprague-Dawley rat at 1 mg/kg, iv or 2 mg/kg, po administered via gavage by LC-MS/MS analysis; type: ADME, organism-based; conditions: in vivo
[5] = Selectivity ratio of IC50 for human CYP11B1-8C7 expressed in Chinese hamster V79 cells to IC50 for human CYP11B2-CLE9 expressed in Chinese hamster V79 cells
Rattus norvegicus = assay: Dose normalized AUC in Sprague-Dawley rat at 2 mg/kg, po administered via gavage by LC-MS/MS analysis; type: ADME, organism-based; conditions: in vivo
Cytochrome P450 2C9 = Cytochrome P450 2C9 (Homo sapiens, UniProt P11712); assay: Inhibition of hepatic CYP2C9 (unknown origin); type: ADME
Cytochrome P450 2D6 = Cytochrome P450 2D6 (Homo sapiens, UniProt P10635); assay: Inhibition of hepatic CYP2D6 (unknown origin); type: ADME
[6] = Oral bioavailability in Sprague-Dawley rat at 2 mg/kg administered via gavage by LC-MS/MS analysis; type: ADME, organism-based; conditions: in vivo
Steroid 21-hydroxylase = target: T3, Steroid 21-hydroxylase (Homo sapiens, UniProt P08686); assay: Inhibition of human CYP21 expressed in African green monkey COS7 cells using […] as substrate preincubated for 1 hr followed by substrate addition measured for 3 hrs by HTRF assay; type: cell-based
T3 sequence (P08686 whole entry): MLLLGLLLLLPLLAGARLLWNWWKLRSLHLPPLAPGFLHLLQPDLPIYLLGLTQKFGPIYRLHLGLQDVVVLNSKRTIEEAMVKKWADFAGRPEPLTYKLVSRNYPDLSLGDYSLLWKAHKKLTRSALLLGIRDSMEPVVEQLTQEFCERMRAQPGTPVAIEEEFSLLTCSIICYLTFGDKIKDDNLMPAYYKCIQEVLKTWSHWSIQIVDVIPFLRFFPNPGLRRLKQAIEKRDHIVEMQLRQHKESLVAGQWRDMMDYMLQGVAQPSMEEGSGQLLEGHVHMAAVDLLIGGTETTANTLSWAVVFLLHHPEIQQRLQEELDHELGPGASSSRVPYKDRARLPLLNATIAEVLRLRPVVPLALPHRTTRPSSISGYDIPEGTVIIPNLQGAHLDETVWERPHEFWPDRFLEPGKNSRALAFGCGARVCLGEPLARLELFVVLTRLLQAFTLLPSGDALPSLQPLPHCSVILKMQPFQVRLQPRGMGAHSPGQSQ

[7] = Selectivity ratio of IC50 for hepatic CYP2D6 (unknown origin) to IC50 for human CYP11B2-CLE9 expressed in Chinese hamster V79 cells
[8] = Plasma clearance in Sprague-Dawley rat at 1 mg/kg, iv or 2 mg/kg, po administered via gavage by LC-MS/MS analysis; type: ADME, organism-based
[9] = Selectivity ratio of IC50 for hepatic CYP2C9 (unknown origin) to IC50 for human CYP11B2-CLE9 expressed in Chinese hamster V79 cells

Chain of Cytochrome P450 2D6 (P10635 whole entry): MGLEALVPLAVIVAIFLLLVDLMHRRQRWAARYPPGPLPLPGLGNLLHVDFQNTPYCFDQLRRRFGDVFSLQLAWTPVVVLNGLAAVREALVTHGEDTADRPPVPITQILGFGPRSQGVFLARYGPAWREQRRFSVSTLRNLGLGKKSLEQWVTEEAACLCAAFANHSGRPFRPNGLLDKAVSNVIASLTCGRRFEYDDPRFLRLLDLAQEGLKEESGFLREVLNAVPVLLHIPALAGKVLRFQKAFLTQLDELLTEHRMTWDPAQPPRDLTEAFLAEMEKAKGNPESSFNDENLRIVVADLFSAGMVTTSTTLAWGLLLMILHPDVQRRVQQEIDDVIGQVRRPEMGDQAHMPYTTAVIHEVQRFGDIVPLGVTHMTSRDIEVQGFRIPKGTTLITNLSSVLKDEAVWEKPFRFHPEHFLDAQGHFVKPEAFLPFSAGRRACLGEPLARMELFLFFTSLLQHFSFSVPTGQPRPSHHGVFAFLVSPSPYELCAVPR
Chain of Cytochrome P450 3A4 (P08684 whole entry): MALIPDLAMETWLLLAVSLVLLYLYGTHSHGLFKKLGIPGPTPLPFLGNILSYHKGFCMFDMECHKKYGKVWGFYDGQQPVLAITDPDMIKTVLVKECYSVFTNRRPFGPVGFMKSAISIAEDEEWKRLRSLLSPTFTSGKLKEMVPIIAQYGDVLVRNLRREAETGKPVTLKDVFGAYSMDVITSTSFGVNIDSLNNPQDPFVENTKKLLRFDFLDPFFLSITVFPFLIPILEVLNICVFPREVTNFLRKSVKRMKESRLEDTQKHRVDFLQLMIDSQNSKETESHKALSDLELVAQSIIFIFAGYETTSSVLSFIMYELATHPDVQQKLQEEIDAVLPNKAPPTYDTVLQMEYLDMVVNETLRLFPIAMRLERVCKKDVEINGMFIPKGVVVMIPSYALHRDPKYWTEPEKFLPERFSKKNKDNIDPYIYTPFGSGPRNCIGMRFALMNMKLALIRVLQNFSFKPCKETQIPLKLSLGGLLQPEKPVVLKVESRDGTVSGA
Chain of Cytochrome P450 2C9 (P11712 whole entry): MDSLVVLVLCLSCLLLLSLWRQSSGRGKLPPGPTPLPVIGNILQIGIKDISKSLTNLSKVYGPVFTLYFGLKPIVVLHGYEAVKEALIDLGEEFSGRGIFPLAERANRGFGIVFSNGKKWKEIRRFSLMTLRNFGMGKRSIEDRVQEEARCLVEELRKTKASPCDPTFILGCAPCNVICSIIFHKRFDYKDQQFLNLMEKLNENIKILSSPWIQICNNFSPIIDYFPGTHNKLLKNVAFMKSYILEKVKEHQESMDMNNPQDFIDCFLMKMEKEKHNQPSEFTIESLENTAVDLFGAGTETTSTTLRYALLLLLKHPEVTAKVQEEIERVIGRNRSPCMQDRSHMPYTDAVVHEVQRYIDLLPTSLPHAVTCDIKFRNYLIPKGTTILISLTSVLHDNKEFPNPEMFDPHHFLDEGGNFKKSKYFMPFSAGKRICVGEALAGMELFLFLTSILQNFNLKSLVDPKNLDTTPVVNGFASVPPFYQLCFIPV

IC50 [1]: 0.0022 µM
half-life [2]: 7.6 h
IC50 (Cytochrome P450 3A4): 43 µM
IC50 [3]: 0.0022 to 0.00224 µM
Vd [4]: 6.3 L/kg
AUC/dose (Rattus norvegicus): 0.85 µM·kg·h/mg
IC50 (Cytochrome P450 2C9): 9.1 µM
IC50 (Cytochrome P450 2D6): 2.8 µM
bioavailability [6]: 28%
IC50 (Steroid 21-hydroxylase): > 10 µM
clearance [8]: 0.84 L/h/kg
Compound: CC(C)(O)c1cncc(-n2ncc3c(C(F)(F)F)cccc32)c1
Ratio IC50 [5]: 44
Ratio IC50 [7]: >1000
Ratio IC50 [9]: >4000
